The test system of one series is A549 cells. As to the kind of experiment: 72-h MTT viability assay, A549. Type of series: cell-based, human. The following applies: Homo sapiens, A549, 72 h, 72 h incubation, mean of 3 experiments +/-SD. The source says: (§1) The IC50 for cell viability was described with a dose of the drug, with a 50% reduction in the whole population, when compared to the untreated controls. The obtained results allow for a comparison of different compounds, using the same or different targeted cell lines. Cell survival fractions (SF), followed by the MTT 72-h viability assay for the HCT116 and SH-5YSY cells, are presented in the Supplementary File (Figure S1).
(§2) For cytological studies, human cancer cell lines were chosen, with special emphasis on the colorectal, HCT116, and neuroblastoma SH-5YSY cell lines, as well as lung normal epithelial BEAS-2B and cancer H1299 and A549 cancer cell lines (all obtained from the ATTC collection; Manassas, VA, USA). The cells were harvested under the standard conditions in incubator (5% CO2, 37 °C and 60% humidity; Panasonic model MCO-19 AIC). Cells were cultured in T75 mL sterile bottles (Sartedt), using DMEM-F12 medium (Merck, Poznań, Poland) supplemented with 10% of Fetal Bovine Serum (EURx, Gdańsk, Poland). During the experimental procedure, each cell line wasn’t more than 60–80% confluenced, no older than maximal number of passages 30. For adherent cell passages, the enzyme trypsin working solution, prepared in sodium phosphate buffer saline (PBS, pH = 7.4; PAN-Biotech Gmbh, Aidenbach, Germany), was used. The tested compounds were prepared as […] stocks in 100% DMSO (Merck, Poznań, Poland), and were stored at −20 °C. Before use in cytological studies, the working solution of each compound was prepared directly in complete DMEM-F12 medium. A positive-control, anticancer drug, etoposide (Merck, Poznań, Poland), was dissolved and prepared as solutions with doses of 20, 10, 5, 2.5, 1.25, 0.63 µM (0 µM for control, untreated cells in DMEM-F12 without any tested compound additions), respectively.
(§3) HCT116 and SH-5YSY cells collected after trypsinization were counted under the Bürker’s chamber, and 2000 or 5000 cells were seeded on each well of the 96-well-format sterile plate (Sarstedt, Nümbrecht, Germany), in 100 µL of complete DMEM-F12 medium, respectively. Twenty-four hours before compound addition, the cells were monitored directly on plates; only well-attached cells were used for treatments with background controls (DMSO with final maximal concentration of 1%) and untreated controls. The normal lung (BEAS-2B) and cancer (H1299 and […]) cell lines were cultured and prepared for viability MTT assay in similar way. To treat wells, 100 µL of tested compounds in fresh medium were added at concentration range of 100, 50, 25, 12.5, 6.25, 3.13 µM (0 µM for control, untreated cells in DMEM-F12 without any tested compound additions). An etoposide as a positive control, as anticancer drug, was prepared in similar way. Followed by 72 h of incubation, the viability assay was performed according to the producer protocol (Promega, Madison, WI, USA), where the medium and compounds were removed and cells were washed with PBS solution. A yellow tetrazolium salt (3-(4,5-dimethylthiazol-2-yl)-2,5-diphenyltetrazolium bromide solution (0.5 mg/mL) in serum and phenol red-free DMEM (Merck, Poznań, Poland) was added to each well on plates at a volume of 50 µL for 2–3 h of darkness, at 37 °C incubation. The purple formazan crystals were produced only by the viable cells, containing NAD (P)H-dependent oxidoreductase enzymes, which reduce the MTT. The crystals were dissolved in acidic (0.04 M HCl) 2-propanolol solution (Merck, Poznań, Poland) after addition of 75 µL of dissolving mixture to each well on plates for 5–10 min in darkness and at room-temperature (RT) incubation. The absorption at 570 nm was measured directly using multiplate reader (Epoch, BioTek, Winooski, VT, USA). Each time, the biological experiments were repeated three times.
(§4) Obtained absorbance was analyzed for proliferation and survival fraction (SF) assessments, where tested samples were compared to the untreated controls (100%). […]
In general terms: Tetrazolium assays rely on reduction of a dye to a coloured formazan, in cell work by metabolically active cells.

The test system of another series is H1299 cells. In words: 72-h MTT viability assay, H1299. It is filed as cell-based, human. The conditions noted are these: 72 h incubation, mean of 3 experiments +/-SD.
From the text: as §1, §2, §3, §4

A further series has as its system SH-SY5Y cells. In words: 72-h MTT viability assay, SH-SY5Y. Type of series: cell-based, human. The following applies: 72 h incubation, mean of 3 experiments +/-SD, no effect = viability (SF) similar to control, about 100%; for IC50: Homo sapiens, SH-SY5Y.
From the text: as §1, §2, §3, §4

The subject of a further series is HCT116 cells. In words: 72-h MTT viability assay, HCT116. Type of series: cell-based, human. The conditions noted are these: Homo sapiens, HCT-116, 72 h, 72 h incubation, mean of 3 experiments +/-SD.
From the text: as §1, §2, §3, §4

Series [1] concerns HCT116, SH-SY5Y, A549, H1299 cell lines. As to the kind of experiment: 72-h MTT viability assay, all cell lines used in the study (summary statements). Type of series: cell-based, human. The following applies: for anticancer activity (ranking within the series): HCT116 and SH-SY5Y, in words.
From the text: as §1, §2
HCT116 and SH-5YSY cells collected after trypsinization were counted under the Bürker’s chamber, and 2000 or 5000 cells were seeded on each well of the 96-well-format sterile plate (Sarstedt, Nümbrecht, Germany), in 100 µL of complete DMEM-F12 medium, respectively. Twenty-four hours before compound addition, the cells were monitored directly on plates; only well-attached cells were used for treatments with background controls (DMSO with final maximal concentration of 1%) and untreated controls. The normal lung (BEAS-2B) and cancer (H1299 and […]) cell lines were cultured and prepared for viability MTT assay in similar way. […] The absorption at 570 nm was measured directly using multiplate reader (Epoch, BioTek, Winooski, VT, USA). […]
as §4

A further series has as its system BEAS-2B cells. In words: 72-h MTT viability assay, normal lung epithelial BEAS-2B. Type of series: cell-based, human. The conditions noted are these: 72 h incubation, mean of 3 experiments +/-SD, no effect = viability (SF) similar to control, about 100%; for IC50: Homo sapiens, BEAS-2B.
From the text: as §1, §2, §3, §4

Entries after “also recorded” stand apart in the source; their conditions may differ.

The term IC50 denotes the point on the concentration scale where inhibition reaches its midpoint. What is called melting point is the temperature, or range, at which the solid turns liquid.

`CC(=O)NCCCCN1c2c(cnc3ccccc23)Sc2cnc3ccccc3c21` [Compound 5c, 14-acetylaminobutyldiquinothiazine] came in with a melting point of 68 to 69 °C. The molecule also yielded an IC50 with A549 cells of 49.3 ± 15.9 µM. Besides, in the series with H1299 cells (Homo sapiens, NCI-H1299, 72 h), it took 30.3 ± 1.57 µM to reach half-maximal inhibition (IC50). This molecule also registered an IC50 in the series with SH-SY5Y cells of 21.9 ± 4.31 µM. This molecule had an IC50 in the series with HCT116 cells of 26.5 ± 1.15 µM. In addition, in series [1], the “anticancer activity (ranking within the series)” value is recorded as “lowest anticancer activity”. In addition, in the series with BEAS-2B cells, the “IC50 BEAS-2B” value was “no effect”.
As to `c1ccc2c3c(cnc2c1)Sc1cnc2ccccc2c1N3CCN1CCNCC1` [Compound 2e, 14-(piperazinyloethyl)dichinotiazyny], the IC50 in the series on A549 cells turned out to be 10.1 ± 2.26 µM; in the series with H1299 cells (Homo sapiens, NCI-H1299, 72 h) it was 7 ± 1.85 µM; in the series with SH-SY5Y cells, 4.9 ± 0.87 µM; in the series with HCT116 cells, 10.3 ± 1.82 µM; with BEAS-2B cells it was 26.5 ± 1.85 µM.
The corresponding values for `c1ccc2c3c(cnc2c1)Sc1cnc2ccccc2c1N3CCN1CCOCC1` [Compound 2d] are 20.7 ± 2.25 µM, 8.9 ± 1.02 µM, 13.5 ± 2.69 µM, 23.1 ± 1.37 µM and 118 ± 18.4 µM.
Regarding `c1ccc2c3c(cnc2c1)Sc1cnc2ccccc2c1N3` [Compound M0], the IC50 amounted to 18 ± 3.09 µM with A549 cells; 67.2 ± 9.64 µM in the series on H1299 cells (Homo sapiens, NCI-H1299, 72 h); 5.8 ± 0.63 µM in the series with HCT116 cells. Besides, in the series on SH-SY5Y cells, the “IC50 SH-SY5Y” value is “inactive; also recorded: no effect”. The “IC50 BEAS-2B” value in the series on BEAS-2B cells is “no effect”.
On to `CSc1ccc(N2c3c(cnc4ccccc34)Sc3cnc4ccccc4c32)cc1` [Compound 3c, 14-(methylthiophenyl)diquinothiazine], for which the melting point was 262 to 263 °C. The same molecule showed an IC50 with A549 cells of 17.2 ± 1.02 µM. Also, the midpoint of inhibition in the series on H1299 cells, the IC50, lay at 1.6 ± 0.86 µM. For the same molecule, half-maximal inhibition in the series on H1299 cells (Homo sapiens, NCI-H1299, 72 h) (IC50) was put at 2.7 µM. In the series on SH-SY5Y cells, the IC50 is 2.7 ± 0.21 µM. Further, in series [1], the “anticancer activity (ranking within the series)” value is “strongest anticancer activity”. Moreover, the IC50 in series [1] (Homo sapiens, range over the cancer cell lines, read-out: IC50 values against all cell lines used in the study) lay in the range of 1.6 to 17.2 µM. In the series on BEAS-2B cells, the “IC50 BEAS-2B” value is recorded as “low cytotoxicity” and 69 ± 4.89 µM corresponded to half-maximal inhibition (IC50).
Take `c1ccc2c3c(cnc2c1)Sc1cnc2ccccc2c1N3CCN1CCCCC1` [Compound 2c]: the IC50 in the series with A549 cells is 14.7 ± 2.81 µM; with H1299 cells (Homo sapiens, NCI-H1299, 72 h), 7.5 ± 1.97 µM; with SH-SY5Y cells, 14.3 ± 1.49 µM. In addition, the “IC50 BEAS-2B” value in the series on BEAS-2B cells was “no effect”.
The molecule `CS(=O)(=O)NCCCCN1c2c(cnc3ccccc23)Sc2cnc3ccccc3c21` [Compound 6c, 14-methanesulfonylaminobutyldiquinothiazine] registered a melting point of 184 to 186 °C. This molecule also gave an IC50 in the series with A549 cells of 36.9 ± 16.8 µM. For the same molecule, half-maximal inhibition with H1299 cells (Homo sapiens, NCI-H1299, 72 h) (IC50) required 13.4 ± 1.68 µM. For the same molecule, the IC50 in the series with SH-SY5Y cells came out at 21.6 ± 7.64 µM. This molecule also returned a concentration for half-maximal inhibition (IC50) in the series on HCT116 cells of 17.6 ± 1.85 µM. For the same molecule, the “IC50 BEAS-2B” value in the series with BEAS-2B cells is “no effect”.
Molecule `CS(=O)(=O)NCCCN1c2c(cnc3ccccc23)Sc2cnc3ccccc3c21` [Compound 6b, 14-methanesulfonylaminopropyldiquinothiazine] showed a melting point of 199 to 200 °C. Half-maximal inhibition with A549 cells (IC50) was put at 45.2 ± 17.2 µM. Moreover, in the series on H1299 cells (Homo sapiens, NCI-H1299, 72 h), the IC50 was determined as 25.9 ± 4.14 µM. In addition, the “IC50 SH-SY5Y” value with SH-SY5Y cells is “inactive; also recorded: no effect”. Besides, the IC50 with HCT116 cells was found to be 15.6 ± 1.16 µM. Also, the “IC50 BEAS-2B” value in the series with BEAS-2B cells is given as “no effect”.
`CN(C)CCCN1c2c(cnc3ccccc23)Sc2cnc3ccccc3c21` [Compound 2g]: the IC50 turned out to be 31.5 ± 2.36 µM in the series with A549 cells; 24.5 ± 1.91 µM in the series with H1299 cells (Homo sapiens, NCI-H1299, 72 h); 13.1 ± 1.82 µM in the series on HCT116 cells. Besides, the “IC50 SH-SY5Y” value with SH-SY5Y cells was “inactive; also recorded: no effect”. Also, the “IC50 BEAS-2B” value in the series with BEAS-2B cells is recorded as “no effect”.
